Test [1] has as its target T1, SARS-CoV-2 PLpro (nsp3 1564–1878) (Severe acute respiratory syndrome coronavirus 2, UniProt P0DTD1). The test is described as follows: biochemical. Also noted: FRET-quenched peptide (Pro3) cleavage by PLpro, 10 min pre-incubation, slope over 20 min, normalised to no-compound control. The conditions noted are these: low concentration screen, read-out: % of control remaining.

In test [2] the target is T1, SARS-CoV-2 PLpro (nsp3 1564–1878). The test is described as follows: biochemical. As to conditions: high concentration screen, read-out: % of control remaining. Set-up: FRET-quenched peptide (Pro3) cleavage by PLpro, 10 min pre-incubation, slope over 20 min, normalised to no-compound control.

Counter-ions that a name gives are not always drawn. Like-named read-outs stand apart in the source and are kept apart here.

For the compound `CC(C)OC(=O)C1=CN(C(=O)c2ccc(F)c(F)c2)CC(C)(C)c2c1[nH]c1ccccc21` [WAY-362450], in test [1] (Well no.=4928), the remaining activity at 1.25 µM worked out at 95.1%. Further, the remaining activity at 3.75 µM in test [2] (Well no.=4928) amounted to 96.2%.
For the compound `COc1cccc(OC)c1OCCNCC1COc2ccccc2O1` (centres unmarked) [WB-4101 hydrochloride], in test [1] (Well no.=443), the remaining activity at 1.25 µM came out at 96%. Besides, the remaining activity at 3.75 µM in test [2] (Well no.=443) was determined as 99.1%.
For `Cc1ccc(-c2nn(C(C)(C)CNC(=O)c3ccncc3)c3ncnc(N)c23)cc1` [WEHI-345], the remaining activity at 1.25 µM in test [1] (Well no.=6690) turned out to be 96.4%. Besides, the remaining activity at 3.75 µM in test [2] (Well no.=6690) turned out to be 96.2%.
With `COc1cc2ncnc(Nc3ccc(O)cc3)c2cc1OC` [WHI-P131], in test [1] (Well no.=1338), the remaining activity at 1.25 µM amounted to 93.8%. Moreover, in test [2] (Well no.=1338), the remaining activity at 3.75 µM is 97.1%.
`COc1cc2ncnc(Nc3cccc(O)c3)c2cc1OC` [WHI-P180, Hydrochloride]: the remaining activity at 1.25 µM in test [1] (Well no.=2679) was 96%. For the same compound, the remaining activity at 3.75 µM in test [2] (Well no.=2679) came out at 96.7%.
Regarding `C#C[C@]1(O)CC[C@H]2[C@@H]3CCC4=Cc5nc6nc7ccccc7n6cc5C[C@]4(C)[C@H]3CC[C@@]21C` [WIN 62,577], the remaining activity at 1.25 µM in test [1] (Well no.=1196) came out at 99.9%. Besides, the remaining activity at 3.75 µM in test [2] (Well no.=1196) came out at 97.4%.
Regarding `C[C@H](NC(=O)/C(C#N)=C/c1cccc(Br)n1)c1ccccc1` [WP1066], the remaining activity at 1.25 µM in test [1] (Well no.=4779) stood at 103%. In addition, in test [2] (Well no.=4779), the remaining activity at 3.75 µM was determined as 99%.
`CCC[C@H](NC(=O)/C(C#N)=C/c1cccc(Br)n1)c1ccccc1` [WP1130]: the remaining activity at 1.25 µM in test [1] (Well no.=4862) came to 95.4%. In addition, the remaining activity at 3.75 µM in test [2] (Well no.=4862) amounted to 98.1%.
For `NCCCNCCS` [WR-1065 dihydrochloride], the remaining activity at 1.25 µM in test [1] (Well no.=6786) is 94.6%. In test [2] (Well no.=6786), the remaining activity at 3.75 µM is 94.3%.
As to `Cc1cccc(Nc2cc(Cl)nc(SCC(=O)O)n2)c1C` [WY-14643], in test [1] (Well no.=4570), the remaining activity at 1.25 µM was 97.3%. In addition, the remaining activity at 3.75 µM in test [2] (Well no.=4570) is 103%.
`CCOC(=O)c1cnc(C#Cc2ccc3c(c2)C(C)(C)CC[S+]3[O-])nc1` (centres unmarked) [WYC-209]: the remaining activity at 1.25 µM in test [1] (Well no.=7204) turned out to be 92.4%. Also, the remaining activity at 3.75 µM in test [2] (Well no.=7204) stood at 90.8%.
`COC(=O)Nc1ccc(-c2nc(N3CCOCC3)c3cnn(C4CCN(C(=O)OC)CC4)c3n2)cc1` [WYE-354]: the remaining activity at 1.25 µM in test [1] (Well no.=4769) is 101%. Further, the remaining activity at 3.75 µM in test [2] (Well no.=4769) was 103%.
`COC(=O)Nc1ccc(-c2nc(N3CCOCC3)c3cnn(C4CCN(Cc5cccnc5)CC4)c3n2)cc1` [WYE-687]: the remaining activity at 1.25 µM in test [1] (Well no.=4645) came to 104%. Moreover, the remaining activity at 3.75 µM in test [2] (Well no.=4645) was 103%.
`CNC(=O)Nc1ccc(-c2nc(N3CC4CCC(C3)O4)c3cnn(C4CCC5(CC4)OCCO5)c3n2)cc1` [WYE-125132]: in test [1] (Well no.=4641), the remaining activity at 1.25 µM was found to be 99.8%. In test [2] (Well no.=4641), the remaining activity at 3.75 µM was 104%.
`c1ccc(NCc2ccc(CNc3ccccn3)cc2)nc1` [WZ811]: the results for the remaining activity at 1.25 µM in test [1] (Well no.=7135) and in test [1] (Well no.=8459) were 102% and 98.2%, respectively. In addition, the remaining activity at 3.75 µM in test [2] (Well no.=7135) amounted to 96.2%; in test [2] (Well no.=8459), 88.4%.
Consider `C=CC(=O)Nc1cccc(Oc2nc(Nc3ccc(N4CCN(C)CC4)cc3)ncc2Cl)c1` [WZ3146], for which the remaining activity at 1.25 µM in test [1] (Well no.=4711) came out at 103%. Further, the remaining activity at 3.75 µM in test [2] (Well no.=4711) was found to be 106%.
`C=CC(=O)Nc1cccc(Oc2nc(Nc3ccc(N4CCN(C)CC4)cc3OC)ncc2Cl)c1` [WZ4002]: the remaining activity at 1.25 µM in test [1] (Well no.=4713) was determined as 107%. Moreover, the remaining activity at 3.75 µM in test [2] (Well no.=4713) came to 106%.
In the case of `C=CC(=O)Nc1cccc(Sc2nc(Nc3ccc(N4CCN(C)CC4)cc3)ncc2Cl)c1` [WZ8040], the remaining activity at 1.25 µM in test [1] (Well no.=4717) turned out to be 107%. For the same compound, in test [2] (Well no.=4717), the remaining activity at 3.75 µM is 107%.
For the compound `c1ccc(NCc2ccc(CNc3ccccn3)cc2)nc1` [WZ 811], the remaining activity at 1.25 µM in test [1] (Well no.=4843) stood at 100%. The remaining activity at 3.75 µM in test [2] (Well no.=4843) was 102%.
Take `O=C(Oc1cccc(F)c1OC(=O)c1cccc(O)c1)c1cccc(O)c1` [WZB117]: the remaining activity at 1.25 µM in test [1] (Well no.=8770) is 102%. In addition, in test [2] (Well no.=8770), the remaining activity at 3.75 µM was 101%.
Regarding `COc1cc(O)c2c(c1)oc(=O)c1c3cc(O)c(O)cc3oc21` [Wedelolactone], the remaining activity at 1.25 µM in test [1] (Well no.=3230) was 99.3%. Moreover, in test [2] (Well no.=3230), the remaining activity at 3.75 µM turned out to be 98%.

(Values after paper PMC8286840, “Identifying SARS-CoV-2 antiviral compounds by screening for small molecule inhibitors of Nsp3 papain-like protease” (Biochemical Journal, 2021).)
